System: ddY mice
Experiment: Oxylipin analysis of plasma and brain regions of juvenile offspring after maternal glyphosate exposure
Format: in vivo, mouse
Conditions: juvenile offspring (P28), maternal 0.095% glyphosate
Description: Collection of blood and brain samples and oxylipin analysis. Water or 0.095% glyphosate was given to pregnant mice from E5 to P21, as described above. The male offspring were separated from their mothers at weaning (P21). At juvenile (P28) stage, mice were deeply anesthetized with isoflurane and plasma was collected. Subsequently, brains were removed from the skulls. For Western blot analysis, brain regions such as prefrontal cortex (PFC), hippocampus, and striatum, were dissected from brain on ice. The samples were stored at −80° C. before assay. For oxylipin analysis, plasma was collected after isoflurane anesthesia at juvenile (P28) stage. Subsequently, PFC, hippocampus, and striatum were dissected from brain on ice, and the samples were stored at −80° C. before assay. Measurement of eicosanoids in the plasma and brain regions was performed at UC Davis using the previous method (4).

With O=C(O)CNCP(=O)(O)O [glyphosate] the “4,5-DiHDPE level” value (PFC) was 1.083 ± 0.242 pmol/g, the “5(6)-EpETrE level” value (PFC) was 3862.881 ± 1353.639 pmol/g and the “5,6-DiHETrE level” value (PFC) was 0.699 ± 0.113 pmol/g. For the same molecule, the 5-HEPE level (PFC) was 1.760 ± 0.234 pmol/g, the 5-HETE level (PFC) was 18.560 ± 1.797 pmol/g and the 5-oxo-ETE level (PFC) was 142.497 ± 16.459 pmol/g. The 6-keto-PGF1a level (PFC) was 88.691 ± 7.208 pmol/g, the “7(8)-EpDPE level” value (PFC) was 3640.707 ± 1175.101 pmol/g and the “8(9)-EpETE level” value (PFC) was 1.992 ± 0.638 pmol/g. For the same molecule, the “8(9)-EpETrE alt level” value (PFC) was 447.323 ± 148.765 pmol/g, the “8(9)-EpETrE level” value (PFC) was 12713.4 ± 6124.0 pmol/g and the 8-HEPE level (PFC) was 0.959 ± 0.080 pmol/g. The 8-HETE level (PFC) was 7.904 ± 0.840 pmol/g, the “9(10)-EpOME level” value (PFC) was 57.775 ± 18.915 pmol/g and the “9,10,13-TriHOME level” value (PFC) was 31.772 ± 4.440 pmol/g. The “9,12,13-TriHOME level” value (PFC) was 52.749 ± 6.979 pmol/g, the 9-HETE level (PFC) was 1.826 ± 0.587 pmol/g and the 9-HODE level (PFC) was 32.184 ± 2.752 pmol/g. The “10(11)-EpDPE level” value (PFC) was 270.138 ± 86.641 pmol/g, the “11(12)-EpETE level” value (PFC) was 2.775 ± 0.733 pmol/g and the “11(12)-EpETrE level” value (PFC) was 1128.684 ± 354.042 pmol/g. The “11,12-,15-TriHETrE level” value (PFC) was 27.925 ± 2.262 pmol/g, the “11,12-DiHETrE level” value (PFC) was 1.383 ± 0.124 pmol/g and the 11-HETE level (PFC) was 275.604 ± 19.707 pmol/g. The “12(13)-EpOME level” value (PFC) was 67.240 ± 21.629 pmol/g, the 12-HEPE level (PFC) was 6.850 ± 1.105 pmol/g and the 12-HETE level (PFC) was 448.365 ± 69.003 pmol/g. The 12-oxo-ETE level (PFC) was 2140.116 ± 142.081 pmol/g, the “13(14)-EpDPE level” value (PFC) was 190.175 ± 59.161 pmol/g and the “13,14-DiHDPE level” value (PFC) was 0.851 ± 0.076 pmol/g. For the same molecule, the 13-HODE level (PFC) was 45.239 ± 3.261 pmol/g, the “14(15)-EpETE level” value (PFC) was 1.633 ± 0.487 pmol/g and the “14(15)-EpETrE level” value (PFC) was 1037.632 ± 291.994 pmol/g. For the same molecule, the “14,15-DiHETrE level” value (PFC) was 2.498 ± 0.243 pmol/g, the “15(16)-EpODE level” value (PFC) was 0.500 ± 0.121 pmol/g and the “15(S)-HETrE level” value (PFC) was 11.900 ± 1.029 pmol/g. The 15-HETE level (PFC) was 313.016 ± 24.240 pmol/g, the 15-oxo-ETE level (PFC) was 10.104 ± 1.289 pmol/g and the “16(17)-EpDPE level” value (PFC) was 195.454 ± 58.684 pmol/g. The “16,17-DiHDPE level” value (PFC) was 1.154 ± 0.110 pmol/g, the “17(18)-EpETE level” value (PFC) was 3.729 ± 1.017 pmol/g and the 17-HDoHE level (PFC) was 6200.527 ± 739.211 pmol/g. The “19(20)-EpDPE level” value (PFC) was 353.450 ± 99.156 pmol/g, the “19,20-DiHDPE level” value (PFC) was 7.491 ± 0.703 pmol/g and the EKODE level (PFC) was 12.663 ± 1.143 pmol/g. For the same molecule, the LTB3 level (PFC) was 53.423 ± 26.072 pmol/g, the PGD2 level (PFC) was 439.532 ± 37.011 pmol/g and the PGE2 level (PFC) was 137.389 ± 14.051 pmol/g. The PGF2a level (PFC) was 431.431 ± 34.510 pmol/g, the TXB2 level (PFC) was 246.160 ± 16.777 pmol/g and the “4,5-DiHDPE level” value (hippocampus) was 1.572 ± 0.704 pmol/mL. The “5(6)-EpETrE level” value (hippocampus) was 917.184 ± 134.826 pmol/mL, the “5,6-DiHETrE level” value (hippocampus) was 0.470 ± 0.051 pmol/mL and the 5-HEPE level (hippocampus) was 2.917 ± 0.708 pmol/mL. It also gave a 5-HETE level (hippocampus) of 16.705 ± 0.992 pmol/mL, a 5-oxo-ETE level (hippocampus) of 94.461 ± 9.488 pmol/mL and a 6-keto-PGF1a level (hippocampus) of 113.103 ± 15.509 pmol/mL. The “7(8)-EpDPE level” value (hippocampus) was 460.824 ± 81.977 pmol/mL, the “8(9)-EpETE level” value (hippocampus) was 3.435 ± 0.784 pmol/mL and the “8(9)-EpETrE alt level” value (hippocampus) was 89.694 ± 12.609 pmol/mL. The “8(9)-EpETrE level” value (hippocampus) was 971.2 ± 484.7 pmol/mL, the 8-HEPE level (hippocampus) was 1.415 ± 0.182 pmol/mL and the 8-HETE level (hippocampus) was 5.383 ± 0.796 pmol/mL. The “9(10)-EpOME level” value (hippocampus) was 9.131 ± 1.032 pmol/mL, the “9,10,13-TriHOME level” value (hippocampus) was 29.123 ± 5.450 pmol/mL and the “9,12,13-TriHOME level” value (hippocampus) was 51.599 ± 10.194 pmol/mL. The 9-HETE level (hippocampus) was 2.073 ± 0.532 pmol/mL, the 9-HODE level (hippocampus) was 31.282 ± 6.681 pmol/mL and the “10(11)-EpDPE level” value (hippocampus) was 40.179 ± 5.185 pmol/mL. The “11(12)-EpETE level” value (hippocampus) was 1.254 ± 0.537 pmol/mL, the “11(12)-EpETrE level” value (hippocampus) was 254.371 ± 33.701 pmol/mL and the “11,12-,15-TriHETrE level” value (hippocampus) was 20.278 ± 1.789 pmol/mL. For the same molecule, the “11,12-DiHETrE level” value (hippocampus) was 0.914 ± 0.053 pmol/mL, the 11-HETE level (hippocampus) was 261.315 ± 27.149 pmol/mL and the “12(13)-EpOME level” value (hippocampus) was 11.355 ± 1.474 pmol/mL. For the same molecule, the 12-HEPE level (hippocampus) was 9.094 ± 3.984 pmol/mL, the 12-HETE level (hippocampus) was 131.250 ± 40.185 pmol/mL and the 12-oxo-ETE level (hippocampus) was 1245.436 ± 206.406 pmol/mL. For the same molecule, the “13(14)-EpDPE level” value (hippocampus) was 27.748 ± 3.955 pmol/mL, the “13,14-DiHDPE level” value (hippocampus) was 0.516 ± 0.089 pmol/mL and the 13-HODE level (hippocampus) was 54.648 ± 8.929 pmol/mL. The “14(15)-EpETE level” value (hippocampus) was 0.712 ± 0.184 pmol/mL, the “14(15)-EpETrE level” value (hippocampus) was 241.703 ± 26.592 pmol/mL and the “14,15-DiHETrE level” value (hippocampus) was 1.183 ± 0.095 pmol/mL. For the same molecule, the “15(16)-EpODE level” value (hippocampus) was 2.750 ± 0.907 pmol/mL, the “15(S)-HETrE level” value (hippocampus) was 7.994 ± 1.430 pmol/mL and the 15-HETE level (hippocampus) was 263.402 ± 29.963 pmol/mL. The 15-oxo-ETE level (hippocampus) was 8.232 ± 0.652 pmol/mL, the “16(17)-EpDPE level” value (hippocampus) was 29.112 ± 4.286 pmol/mL and the “16,17-DiHDPE level” value (hippocampus) was 0.675 ± 0.093 pmol/mL. For the same molecule, the “17(18)-EpETE level” value (hippocampus) was 1.592 ± 0.499 pmol/mL, the 17-HDoHE level (hippocampus) was 5997.276 ± 762.508 pmol/mL and the “19(20)-EpDPE level” value (hippocampus) was 55.856 ± 8.656 pmol/mL. For the same molecule, the “19,20-DiHDPE level” value (hippocampus) was 5.359 ± 0.322 pmol/mL, the EKODE level (hippocampus) was 11.362 ± 1.014 pmol/mL and the LTB3 level (hippocampus) was 13.669 pmol/mL. It also gave a PGD2 level (hippocampus) of 349.020 ± 34.288 pmol/mL, a PGE2 level (hippocampus) of 68.947 ± 7.203 pmol/mL and a PGF2a level (hippocampus) of 314.752 ± 30.178 pmol/mL. For the same molecule, the TXB2 level (hippocampus) was 198.203 ± 24.835 pmol/mL.
